From patent publication US5366975A, “Invertebrate phenylethanolamine transporter and the use thereof” (priority 1992, dated 1994)
Counter-ions that a name gives are not always drawn. Like-named read-outs stand apart in the source and are kept apart here.

Legend:
[1] = test system: tobacco hornworms (Manducca sexta); set-up: species or system Manduca sexta; conditions: in vivo
Gs -coupled OA receptors = conditions: Manduca, a sensitive species; cited from earlier work
adenylate cyclase = conditions: cockroach, a resistant species; cited from earlier work
Manducca eggs = assay: Ovicidal assay; type: in vivo, Manduca sexta; conditions: 3% cocaine
Method: Test agents were tested for ovicidal activity by dipping groups of 10-50 Manducca eggs in drug solutions for 60 seconds and then determining the percentage of eggs which produced viable larvae. Alternatively, the eggs may be sprayed with the test agent and then placed on artificial media to hatch. A compound with active ovicidal activity was one which decreased the percentage of eggs hatched, relative to control.

firefly lantern = assay: Firefly lantern assay (OA-stimulated light emission); type: in vivo, P. pyralis; conditions: fixed dose of cocaine injected simultaneously with OA into isolated firefly tails; zero Ca++/high Mn++
From the text: To measure the effects of drugs on firefly light emission, an isolated tail (terminal 3 abdominal segments containing the light organ) of a fresh adult P. pyralis male was mounted on a […] stainless steel needle and placed at the focal point of an optical system connected to a photometer-photomultiplier-chart recorder combination (see Nathanson, J. A., Characterization of octopamine-sensitive adenylate cyclase: Development of a potent and selective class of octopamine-2 receptor agonists with toxic effects in insects, Proc. Natl. Acad. Sci. U.S.A. 82: 599-603 (1985)). Drug (dissolved in insect saline, see Carlson, A.D., Effect of adrenergic drugs on the lantern of the larvae of the Photinus firefly, J. Exp. Biol. 48: 381-387 (1968)) was injected (3-5 μl) into the abdominal cavity dorsal to the lantern and light emission was recorded for 45 minutes or until it peaked, following which the next (larger) dose of drug was injected. In the case of animals injected with drugs other than octopamine, following the last dose, […] of octopamine (a maximally effective dose) was injected. Light production is expressed as radiance, each unit approximately equal to 1.6 nanowatts, as measured in a solid angle of 0.033 steradiants. […]

mosquito larvae = assay: Antilarval activity on mosquito larvae; type: in vivo
Method: Five to ten 2-5-day old mosquito larvae, reared from eggs, were placed in small bottles containing 3 ml of water, 2 ml of air space, and a perforated cap open to the air. The compound of interest was dissolved in water or appropriate solvent and added to make a final concentration of from 0.00001 to 1%. The bottles were capped and observed at daily intervals for the number of living larvae, pupae, and emerging adults. After two weeks, the final number of adults emerging as a percentage, relative to control, is plotted as a function of drug concentration.

[2] = test system: octopamine reuptake transporter; type: cell-based, Blaberus; conditions: 100 μM cocaine; ±S.E.M. of triplicate determinations; control 13.6±1.7
[3] = test system: octopamine reuptake transporter; type: biochemical, cockroach

Compound	% leaf remaining [1]	RANK ORDER ANTIFEEDING EFFECT IN MANDUCA [1]	antifeeding effect [1]	other results
1-(2-[bis-(4-fluorophenyl)methoxy]ethyl)-4-(3-phenyl-2-propenyl)piperazine [GBR 12909]	~95%	GBR > COC = DMI = AMT > DSP = XYL =		
NCCc1c[nH]c2ccc(O)cc12 [5-HT, serotonin]				antifeeding effect compared to OA [1]: significantly weaker than OA
CN(C)CCC=C1c2ccccc2CCc2ccccc21 [AMT, amitriptyline]	~100%	GBR > COC = DMI = AMT > DSP = XYL =		
NCCc1ccc(O)c(O)c1 [DA, dopamine]			no antifeeding effects	antifeeding effect of addition to cocaine [1]: no further increase in antifeeding effect
Cc1cc(Cl)ccc1N=CN [DDCDM, didemethylchlordimeform]				potency relative to OA (full OA agonist) (Gs -coupled OA receptors): 20 fold; potency in activating adenylate cyclase relative to OA (adenylate cyclase): much weaker than OA
CNCCCN1c2ccccc2CCc2ccccc21 [DMI, desmethylimipramine]	~80%	GBR > COC = DMI = AMT > DSP = XYL =		
CCN(CCCl)Cc1ccccc1Br [DSP-4]	~100%	GBR > COC = DMI = AMT > DSP = XYL =		
COC(=O)C1=CC[C@@H]2CC[C@H]1N2C [Ecgonidine methyl ester mesylate, (1 R)-8-methyl-8-azabicyclo[3,2,1]oct-2-ene-2-carboxylic acid methyl ester mesylate]			no antifeeding effect	
CN1[C@H]2CC[C@@H]1[C@@H](C(=O)O)[C@H](O)C2 [Ecgonine hydrochloride, (-)-beta-hydroxy-1-alpha-H, 5-alpha-H-tropane-2-beta-carboxlic acid hydrochloride]			no antifeeding effect	
NC[C@H](O)c1ccc(O)c(O)c1 [NE, norepinephrine]				antifeeding effect compared to OA [1]: significantly weaker than OA
COC(=O)[C@H]1[C@@H](OC(=O)c2ccccc2)C[C@@H]2CC[C@H]1N2C [cocaine]		GBR > COC = DMI = AMT > DSP = XYL =		behavior of larvae on sprayed leaves [1]: marked behavioral abnormalities; time after which animals died [1]: 48 to 72 h; percent dead ova (Manducca eggs): greater than 95%; leftward shift in the OA dose-response curve (factor) (firefly lantern): about 10; percent larvae surviving to mature adulthood (mosquito larvae; 0.01% cocaine in water): approximately 50%; adults produced (mosquito larvae; 0.1% cocaine in water): no adults were produced; total uptake of octopamine [2]: 9.6 ±1.4 pmol/mg protein; inhibition of sodium-dependent octopamine uptake ([3]; 10 μM cocaine): about 25%; inhibition of sodium-dependent octopamine uptake ([3]; 100 μM cocaine): about 68%
CN1CCC(=C2c3ccccc3C=Cc3ccccc32)CC1 [cyproheptadine]	~55%			
CNCCC(Oc1ccc(C(F)(F)F)cc1)c1ccccc1 (stereo not drawn) [fluoxetine]	~85%	FLUOX >>MAZ		
CCN(CC)CC(=O)Nc1c(C)cccc1C [lidocaine]				antifeeding inhibition [1]: 15%
OC1(c2ccc(Cl)cc2)c2ccccc2C2=NCCN21 (stereo not drawn) [mazindol]		FLUOX >>MAZ	no antifeeding activity	
CCN(CC)CCOC(=O)c1ccc(N)cc1 [procaine]			only lidocaine showed any activity	
